From ChEMBL document CHEMBL1909526, “Berkeleyones and related meroterpenes from a deep water acid mine waste fungus that inhibit the production of interleukin 1-β from induced inflammasomes” (J Nat Prod, 2011)

The compounds below were run against T1, Caspase-1 (Homo sapiens) (UniProt P29466) (assay: Inhibition of caspase1 in differentiated human THP-1 cells at 100 ug/ml after 24 hrs by fluorometric assay).
T1 sequence (whole entry): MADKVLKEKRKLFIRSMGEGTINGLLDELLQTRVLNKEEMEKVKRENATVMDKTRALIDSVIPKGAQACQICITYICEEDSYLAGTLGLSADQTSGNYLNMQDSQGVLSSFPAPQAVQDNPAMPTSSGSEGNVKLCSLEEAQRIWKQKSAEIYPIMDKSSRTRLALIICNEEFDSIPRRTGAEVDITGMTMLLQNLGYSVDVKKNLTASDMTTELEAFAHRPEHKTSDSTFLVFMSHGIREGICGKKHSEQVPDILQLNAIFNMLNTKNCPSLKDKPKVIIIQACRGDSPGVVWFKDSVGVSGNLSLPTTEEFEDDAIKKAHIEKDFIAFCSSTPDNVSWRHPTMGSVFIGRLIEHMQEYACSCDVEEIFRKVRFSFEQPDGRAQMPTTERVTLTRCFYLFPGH
Assay type: cell-based

Compound	inhibition [%]
C=C1[C@@]2(C)C[C@H]3[C@]4(C)CCC(=O)C(C)(C)[C@H]4CC[C@]3(C)[C@]1(C(=O)OC)C(=O)[C@@](C)(O)C2=O	97
C=C1[C@@]2(C)C[C@H]3[C@]4(C)CC[C@@H](O)C(C)(C)[C@H]4CC[C@]3(C)[C@]1(C(=O)OC)C(=O)[C@@](C)(O)C2=O	68
C=C1[C@@]2(C)C[C@H]3[C@]4(C)CCC(=O)OC(C)(C)[C@@H]4CC[C@]3(C)[C@]1(C(=O)OC)C(=O)[C@@](C)(O)C2=O	77
C=C1[C@@]2(C)C[C@H]3C(C)=C4CC(=O)OC(C)(C)C4=CC[C@]3(C)[C@]1(C(=O)OC)C(=O)[C@@](C)(O)C2=O	89
C=C1[C@@]2(C)C[C@@H]3[C@](C)(CC=C4C(C)(C)OC(=O)CC[C@]43C)[C@]1(C(=O)OC)C(=O)[C@@](C)(O)C2=O	100
C=C(C)C1=CC[C@@]2(C)[C@@H](C[C@]3(C)C(=C)[C@@]2(C(=O)OC)C(=O)[C@@](C)(O)C3=O)[C@]1(C)CCC(=O)O	0

These compounds were tested against T1, Caspase-1 (Homo sapiens) (assay: Inhibition of caspase1 in differentiated human THP-1 cells at 0.0005 ug/ml after 24 hrs by fluorometric assay).
Assay type: cell-based

Compound	inhibition [%]
CC(=O)N[C@@H](Cc1ccc(O)cc1)C(=O)N[C@H](C(=O)N[C@@H](C)C(=O)N[C@H](C=O)CC(=O)O)C(C)C	100
